Tests used:
Experiment in all cases: relative viability (nuclei count vs DMSO), 5 days (fraction); higher = more cells survive
[1] = compound: C1CSC2=C(C(=O)N1)SC3=C2C=C(C=C3)O [kb NB 142-70] + CC1(C)CCC(c2ccc(Cl)cc2)=C(CN2CCN(c3ccc(C(=O)NS(=O)(=O)c4ccc(N[C@H](CCN5CCOCC5)CSc5ccccc5)c(S(=O)(=O)C(F)(F)F)c4)cc3)CC2)C1 [Navitoclax] (partner 0.5 µM)
Summary of the method: (§1)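 Relative viability was taken as the ratio of nuclei in treated wells to nuclei in vehicle wells. Lung cancer cell lines in 1536-well plates received compounds by pin tool one day after seeding, either one drug alone or a fixed anchor-drug dose plus five library-drug doses (not always all listed) in √10 steps. Nuclei were counted on 4× images after 5 days of treatment, and values are medians of duplicate plates.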

[2] = compound: C1CSC2=C(C(=O)N1)SC3=C2C=C(C=C3)O [kb NB 142-70] + Nc1nc2[nH]cc(CCc3ccc(C(=O)N[C@@H](CCC(=O)O)C(=O)O)cc3)c2c(=O)[nH]1 [Pemetrexed] (partner 0.2 µM)
Summary of the method: as §1

[3] = compound: NCC(=O)Nc1ccc(-n2nc(C(F)(F)F)cc2-c2ccc3c(ccc4ccccc43)c2)cc1 + Nc1nc2[nH]cc(CCc3ccc(C(=O)N[C@@H](CCC(=O)O)C(=O)O)cc3)c2c(=O)[nH]1 [Pemetrexed] (partner 0.2 µM)
Summary of the method: as §1

[4] = compound: NCC(=O)Nc1ccc(-n2nc(C(F)(F)F)cc2-c2ccc3c(ccc4ccccc43)c2)cc1 + N=C(N)NC(=N)NCCc1ccccc1 [Phenformin] (partner 250 µM)
Summary of the method: as §1

[5] = compound: C1CSC2=C(C(=O)N1)SC3=C2C=C(C=C3)O [kb NB 142-70] + CC(C)C[C@H](NC(=O)[C@H](Cc1ccccc1)NC(=O)c1cnccn1)B(O)O [Bortezomib] (partner 0.002 µM)
Summary of the method: as §1

Cell Line	relative viability ([1]; first compound 0.1 µM)	relative viability ([1]; first compound 1 µM)	relative viability ([1]; first compound 3.162 µM)	relative viability ([2]; first compound 0.1 µM)	relative viability ([2]; first compound 1 µM)	relative viability ([2]; first compound 3.162 µM)	relative viability ([3]; first compound 0.02 µM)	relative viability ([3]; first compound 0.06325 µM)	relative viability ([3]; first compound 0.2 µM)	relative viability ([3]; first compound 0.6325 µM)	relative viability ([3]; first compound 2 µM)	relative viability ([4]; first compound 0.02 µM)	relative viability ([4]; first compound 0.06325 µM)	relative viability ([4]; first compound 0.2 µM)	relative viability ([4]; first compound 0.6325 µM)	relative viability ([4]; first compound 2 µM)	relative viability ([5]; first compound 0.1 µM)	relative viability ([5]; first compound 1 µM)	relative viability ([5]; first compound 3.162 µM)
HCC-44	1	1.16	1.09	0.554	0.731	0.69	0.634	0.624	0.682	0.657	0.63	0.308	0.252	0.25	0.202	0.284	0.952	0.94	0.899
HCC-78	0.752	0.742	0.652	0.896	0.907	0.899	0.977	0.894	0.884	0.903	0.89	0.758	0.691	0.713	0.649	0.714	0.486	0.543	0.556
HCC-366	1.03	1.13	0.823	0.182	0.214	0.34	0.173	0.149	0.183	0.162	0.282	0.589	0.649	0.595	0.625	0.596	1.07	0.926	1.12
HCC-827	1.04	1.02	1.02	0.25	0.243	0.267	0.217	0.211	0.277	0.251	0.254	0.397	0.431	0.406	0.385	0.385	1.09	1.02	0.978
HOP-62	0.994	1.11	0.968	0.3	0.361	0.388	0.334	0.29	0.3	0.275	0.314	0.683	0.7	0.644	0.608	0.735	0.919	1	0.569
LC-2-ad	0.537	0.473	0.262	0.275	0.23	0.295	0.28	0.265	0.292	0.307	0.281	0.531	0.643	0.609	0.614	0.649	1.12	1.03	0.916
LCLC-97TM1	0.457	0.29	0.307	0.174	0.186	0.182	0.181	0.176	0.183	0.178	0.135	0.397	0.434	0.466	0.442	0.442	0.853	0.563	0.123
LOU-NH91	0.753	0.632	0.438	0.432	0.462	0.386	0.356	0.393	0.375	0.389	0.34	0.652	0.748	0.686	0.671	0.778	0.467	0.431	0.353
LU99A	0.845	0.816	0.598	0.175	0.196	0.187	0.182	0.153	0.202	0.164	0.168	0.76	0.877	0.908	0.824	0.921	1.29	0.995	0.732
LXF-289	0.938	0.986	0.942	0.86	0.989	0.715	0.913	0.956	0.914	0.926	0.767	0.516	0.527	0.494	0.506	0.56	1.02	0.942	0.895
NCI-H23	0.775	0.735	0.331	0.621	0.594	0.367	0.656	0.707	0.56	0.63	0.665	0.702	0.801	0.802	0.823	0.799	1.1	0.896	0.516
NCI-H322M	1.2	1.15	1.11	0.614	0.631	0.45	0.562	0.617	0.535	0.643	0.668	0.808	0.739	0.766	0.747	0.811	1.2	1.25	1.3
NCI-H441	0.683	0.369	0.34	0.269	0.248	0.196	0.253	0.279	0.273	0.259	0.243	0.898	0.819	0.954	1.01	0.844	0.323	0.793	0.307
NCI-H460	0.978	1.25	0.305	0.058	0.0629	0.0654	0.0659	0.064	0.0588	0.0727	0.0577	0.482	0.504	0.505	0.537	0.458	1.05	1.08	0.608
NCI-H520	1.07	1.19	0.482	0.765	0.667	0.375	0.676	0.716	0.761	0.661	0.623	0.574	0.628	0.641	0.625	0.618	0.52	0.541	0.277
NCI-H596	1	0.982	0.866	0.484	0.507	0.461	0.521	0.455	0.548	0.494	0.441	0.72	0.877	0.841	0.721	0.728	1	1.07	0.954

Cell Line	relative viability ([1]; first compound 0.1 µM)	relative viability ([1]; first compound 1 µM)	relative viability ([1]; first compound 3.162 µM)	relative viability ([2]; first compound 0.1 µM)	relative viability ([2]; first compound 1 µM)	relative viability ([2]; first compound 3.162 µM)	relative viability ([3]; first compound 0.02 µM)	relative viability ([3]; first compound 0.06325 µM)	relative viability ([3]; first compound 0.2 µM)	relative viability ([3]; first compound 0.6325 µM)	relative viability ([3]; first compound 2 µM)	relative viability ([4]; first compound 0.02 µM)	relative viability ([4]; first compound 0.06325 µM)	relative viability ([4]; first compound 0.2 µM)	relative viability ([4]; first compound 0.6325 µM)	relative viability ([4]; first compound 2 µM)	relative viability ([5]; first compound 0.1 µM)	relative viability ([5]; first compound 1 µM)	relative viability ([5]; first compound 3.162 µM)
NCI-H647	1.16	1.19	0.842	0.186	0.192	0.178	0.172	0.182	0.205	0.203	0.202	0.451	0.576	0.629	0.463	0.558	0.987	0.773	1.06
NCI-H838	1.19	1.14	1	0.257	0.248	0.245	0.259	0.25	0.253	0.232	0.284	0.51	0.661	0.634	0.548	0.497	0.83	0.777	0.877
NCI-H1355	1.02	0.881	0.936	0.943	1.06	1.04	1.06	1.09	1.07	0.963	1.02	0.465	0.497	0.419	0.483	0.522	1.24	1.16	1.22
NCI-H1437	1.05	1.13	1.02	0.297	0.359	0.349	0.309	0.335	0.35	0.316	0.308	0.247	0.302	0.331	0.308	0.339	0.485	0.492	0.482
NCI-H1650	1.25	1.24	0.89	0.315	0.419	0.481	0.399	0.423	0.331	0.485	0.38	0.426	0.49		0.515	0.449	0.179	0.206	0.203
NCI-H1651	1.07	1.03	0.39	0.598	0.578	0.552	0.588	0.34	0.577	0.603	0.608	0.313	0.387	0.327	0.371	0.313	0.966	0.863	0.857
NCI-H1666	1.08	1.04	0.858	0.811	0.977	0.897	0.947	0.881	0.87	0.851	0.878	0.552	0.566	0.539	0.586	0.579	0.903	0.713	0.36
NCI-H1734	0.794	0.706	0.431	0.395	0.369	0.376	0.406	0.457	0.442	0.442	0.384	0.421	0.365	0.414	0.422	0.395	0.889	0.867	0.49
NCI-H1755	0.996	1.01	1.05	0.43	0.403	0.519	0.69	0.509	0.453	0.394	0.434	0.582	0.587	0.577	0.606	0.607	1.02	0.98	1
NCI-H1792	0.604	0.619	0.644	0.862	0.828	1.13	0.943	1.07	0.802	0.943	0.872	0.325	0.364	0.297	0.337	0.411	0.992	0.988	1.01
NCI-H1915	0.793	0.739	0.519	0.462	0.532	0.474	0.452	0.503	0.477	0.575	0.467	0.367	0.364	0.371	0.349	0.369	0.998	1	0.85
NCI-H1975	1.14	1.15	0.761	0.259	0.309	0.239	0.309	0.293	0.291	0.282	0.278	0.392	0.375	0.439	0.424	0.422	0.33	0.283	0.153
NCI-H1993	0.941	0.82	0.799	0.562	0.597	0.554	0.579	0.504	0.59	0.628	0.599	0.453	0.438	0.515	0.493	0.5	1.14	1.07	1.17
NCI-H2009	1.13	1.22	0.889	1.05	1.09	0.977	1.03	1.01	1.08	1.05	1.04	0.459	0.503	0.482	0.479	0.525	1.09	1.05	0.638
NCI-H2023	0.983	1	0.644	0.253	0.283	0.221	0.226	0.249	0.256	0.224	0.239	0.414	0.441	0.403	0.454	0.412	1.09	1.02	0.668
NCI-H2085	1.18	1.05	0.738	0.866	0.947	0.792	0.831	0.967	0.92	0.892	1.01	0.689	0.786	0.652	0.702	0.72	1	1	0.709
